Each structure is given as a SMILES string. A value given as a limit tells only on which side of the number the result lay.

The nature of series [1]: Reaction kinetics measurement: second-order rate constants of tetrazines with TCO (stopped-flow photometer, pseudo-first-order). Conditions: Second order rate constants with TCO at 37 °C in PBS. It counts as physicochemical. How it is done:
Reaction kinetics of tetrazines with standard TCO were determined using pseudo-first-order measurements with an excess of the TCO compound in PBS (pH = 7.4) at 37.0 ± 0.1 °C following the decrease of tetrazine absorbance at 535 nm. Measurements were performed in triplicates using an SX20 stopped-flow photometer (Applied Photophysics, UK) equipped with a 535 nm LED light source. Data analysis was performed using Prism 6 (Graphpad) to determine the observed rate constants which were converted into secondorder rate constants through dividing by the TCO concentration.
Second-order rate constants for the reaction with TCO in PBS at 37 °C were determined by pseudo-first order measurements in a SX20 stopped flow photometer (Applied Photophysics).

Series [2] can be described thus: Bench stability by analytical HPLC. It counts as physicochemical. The source says:
The stability of [^18F]13 and it precursor (28) was investigated by analytical HPLC.

For another series, the system named is CC49-TCO. As to the kind of experiment: Pretargeted PET/CT imaging in LS174T tumor xenograft bearing mice. It counts as in vivo, Balb/c nude mice. How it is done:
The ability of [^18F]13 to be used as a pretargeting imaging agent was evaluated using a similar pretargeted setup that was used for the ex vivo blocking study in example 7. Mice were administered with CC49-TCO 72 h prior to administration of [^18F]13 where after PET/CT scanning was performed 1 h later. Control animals were injected with unconjugated mAb CC49 instead of CC49-TCO, but were otherwise treated exactly the same. After PET/CT scanning, animals were euthanized and an ex vivo biodistribution performed. […] The tumor uptake was clearly visible. A tumor-to-muscle (T/M) ratio of 20.1 and a tumor-to-blood (T/B) ratio of 1.2 from the image derived data (heart uptake used as surrogate for blood uptake) was determined. The relatively low T/B ratio is likely due to ligation of [^18F]13 with remnant CC49-TCO still circulating in the blood. Clearance of CC49-TCO from blood will most likely increase the ratio drastically. Uptake in tissues beside tumor and blood was low. […]
Pretargeted imaging of [^18F]13 as tested in vivo using the TAG-72 targeting antibody CC49 in human colorectal cancer xenograft tumors LS174T. […] The radioactivity in the tissues were determined using a gamma counter (Wizard^2, Perkin Elmer). Data was corrected for decay, tissue weight and the injected dose of radioactivity. […] Statistical difference between mean %ID/g values were analyzed using Welch's T-test. […]

Series [3] is described as follows: Tetrazine core reactivity test with TCO-PNP (analytical HPLC). It counts as physicochemical. Conditions: after 4 hours at r.t. How it is done:
The reaction between [^18F]13 TCO-PNP was performed by mixing the formulated [^18F]13 (200 µL) with 5 µL of the commercially available TCO-PNP ester dissolved in DMF (5 mg/mL) in an analytical HPLC vial. […]

Molecule `O=C(O)C(F)(F)F.O=C(O)CN(CCF)Cc1cc(F)cc(-c2nncnn2)c1` [Compound 9, N-(carboxymethyl)-2-fluoro-N-(3-fluoro-5-(1,2,4,5-tetrazin-3-yl)benzyl)ethanaminium 2,2,2-trifluoroacetate] yielded a Rate constant in series [1] of 87722 M⁻¹ s⁻¹.

`O=C(O)C(F)(F)F.O=C(O)CN(CCF)Cc1cccc(-c2nncnn2)c1` [Compound 10, N-(3-(1,2,4,5-tetrazin-3-yl)benzyl)-N-(carboxymethyl)-2-fluoroethanaminium 2,2,2-trifluoroacetate] came in with a Rate constant in series [1] of 62464 M⁻¹ s⁻¹. With `O=C(O)C(F)(F)F.O=C(O)CN(CCF)Cc1ccc(-c2nncnn2)cc1F` [Compound 11, N-(carboxymethyl)-2-fluoro-N-(2-fluoro-4-(1,2,4,5-tetrazin-3-yl)benzyl)ethanaminium 2,2,2-trifluoroacetate], the Rate constant in series [1] amounted to 74592 M⁻¹ s⁻¹. As to `O=C(O)C(F)(F)F.O=C(O)CN(CCF)Cc1ccc(-c2nncnn2)cc1` [Compound 12, N-(4-(1,2,4,5-tetrazin-3-yl)benzyl)-N-(carboxymethyl)-2-fluoroethanaminium 2,2,2-trifluoroacetate], the Rate constant in series [1] is 54999 M⁻¹ s⁻¹. The molecule `O=C(O)C(F)(F)F.O=C(O)CN(CC(=O)O)Cc1ccc(-c2nncnn2)cc1OCCF` [Compound 13, 1-Carboxy-N-(carboxymethyl)-N-(2-(2-fluoroethoxy)-4-(1,2,4,5-tetrazin-3-yl)benzyl) methanaminium 2,2,2-trifluoroacetate] had a Rate constant in series [1] of 68478 M⁻¹ s⁻¹.

`CC(C)(C)OC(=O)CN(CC(=O)OC(C)(C)C)Cc1ccc(-c2nncnn2)cc1OCCOS(=O)(=O)c1ccc([N+](=O)[O-])cc1` [Compound 28, Di-tert-butyl 2,2'-((2-(2-(((4-nitrophenyl)sulfonyl)oxy)ethoxy)-4-(1,2,4,5-tetrazin-3-yl)benzyl)azanediyl)diacetate]: the “stability of the precursor” value in series [2] (bench stability, analytical HPLC) is listed as “decomposed over time”. Further, the “stability of the precursor (time stable)” value in series [2] (dissolved (25 mg/mL) in DMSO and frozen at -20 °C) is on record as “at least 3 months”; in series [2] (stored at -20 °C as a solid), at least 3 months. As to `O=C(O)CN(CC(=O)O)Cc1ccc(-c2nncnn2)cc1OCC[18F]` [[^18F]13], the “tumor-to-muscle ratio in comparison with [64Cu]Cu-NOTa-PEG7-H-Tz, [111In]Tz-Tg and ZZ” value in the series with CC49-TCO (PET imaging, Figure 6) is listed as “highest tumor-to-musle ratio”. Further, the “Uptake in tissues beside tumor and blood” value in the series with CC49-TCO (PET/CT 1 h p.i., CC49-TCO pretargeted) is “low”. Also, the “Stability at r.t. over 4 hours” value in series [2] (after 4 hours, Figure 5A) is listed as “no signs of decomposition”. Also, the “stability (time stable)” value in series [2] (analytical HPLC, r.t.) is recorded as “at least 4 hours”. For the same molecule, the “ability to react with TCO-PNP” value in series [3] is given as “still able to react quantitatively with TCO-PNP”.

(Values after patent EP4056546A1, “ALIPHATIC 18F-RADIOLABELING OF A TETRAZINE PRECURSOR” (University of Copenhagen, priority 2021, dated 2022).)
